Where a SMILES comes first, the peptide text is derived from it. Bridges are numbered along the chain shown (N, C = ends).
How the values were obtained:
CK2α–CK2β interaction = target: T1, CK2α–CK2β interaction (Homo sapiens, UniProt P68400); test: In vitro CK2α–CK2β interaction assay; format: binding; conditions: read-out: inhibition of subunit interaction
T1 construct: made in house
Method: Figure 4 Inhibitory activity of a TAT-Pc analogue in vitro. (A) CK2 holoenzyme (100 nM) was incubated in the presence of increasing concentrations of TAT-Pc 13 for 15 min at 4 °C. CK2 activity was then determined with CK2β-dependent or independent peptide substrates; (B) [^35S]-labeled CK2α was incubated with biotinylated MBP-CK2β immobilized on streptavidin coated plates (preformed complex) in the absence (1) or presence (2) of TAT-Pc 13. Alternatively, [^35S]-labeled CK2α was incubated with TAT-Pc 13 (3) or random TAT-Pc 13 (4) and then with immobilized biotinylated MBP-CK2β. After washing, the amount of [^35S]-labeled CK2α remaining in the complex was determined by radioactivity counting. Representative data shown from two independent experiments. Results are presented as mean ± s.d. of triplicates.
The CK2α–CK2β interaction assay involved competition between plate-bound biotinylated MBP–CK2β and various cyclic peptides for binding to [^35S] methionine-labelled CK2α. The assay was performed as previously described in [15].

[1] = target: T2, CK2α/CK2β interaction in MCF-10A cells (Homo sapiens, UniProt P68400); test: CK2β immunoprecipitation from treated cells, Western blot of CK2α; format: cell-based; conditions: WT MCF-10A cells, 50 µM for 2 h, compared with TAT
T2 construct: endogenous in cells; host or cells: MCF-10A (WT)
T2 sequence (P68400 whole entry): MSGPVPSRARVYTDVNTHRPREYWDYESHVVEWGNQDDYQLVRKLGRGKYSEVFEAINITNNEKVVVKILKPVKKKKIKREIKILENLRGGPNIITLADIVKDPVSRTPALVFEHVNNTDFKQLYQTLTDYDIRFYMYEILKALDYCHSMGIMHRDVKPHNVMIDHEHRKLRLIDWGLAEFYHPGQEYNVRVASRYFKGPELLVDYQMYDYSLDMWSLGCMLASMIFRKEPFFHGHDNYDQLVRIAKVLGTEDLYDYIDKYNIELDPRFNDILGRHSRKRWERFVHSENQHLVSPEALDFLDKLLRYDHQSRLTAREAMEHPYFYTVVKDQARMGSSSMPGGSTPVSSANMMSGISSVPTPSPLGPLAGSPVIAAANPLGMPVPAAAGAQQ
Method: To assess the cell-penetrating properties of TAT-Pc 13, we used a tetramethylrhodamine-conjugated TAT-Pc 13 analogue (TAMRA-TAT-Pc 13). The cellular uptake of this fluorescently labeled peptide was very rapid: only 2 min after incubation, the peptide was detectable in MCF-10A cells and plateauing after 5 min (Figure 7A). The impact of TAT-Pc 13 cell uptake on the expression of the CK2 subunits in WT and CK2β-depleted MCF-10A cells was evaluated by Western blot. […] We next evaluated the effect of TAT-Pc 13 on the CK2 subunit association using two independent strategies. First, CK2β was immunoprecipitated in extracts of MCF-10A cells treated with TAT or TAT-Pc 13 and the amount of CK2α recovered in the immunoprecipitates was analyzed by Western blot.
Figure 7 Uptake and cellular effects of TAT-Pc 13. (A) kinetic of TAMRA-TAT-Pc 13 uptake in MCF-10A cells; (B) WT or CK2β-depleted MCF-10A cells were incubated with 50 µM TAT or TAT-Pc 13 for 8 h and the expression of CK2 subunits was evaluated by Western blot; (C) anti-CK2β immunoprecipitates were prepared from WT MCF-10A cells incubated with 50 µM TAT or TAT-Pc 13 for 2 h. Presence of CK2 subunits in the corresponding immunoprecipitates was determined by Western blot; (D) in situ proximity ligation images of MCF-10A cells incubated with 50 µM TAT (a,b,d) or TAT-Pc 13 (c) for 6 h. […]

[2] = tested on: p21 Thr145 phosphorylation, survivin expression, AKT activation; test: Western blot of intracellular events (AKT, phospho-p21 Thr145, survivin); format: cell-based
Method: This was confirmed using the LIVE&DEAD^TM cell viability assay that provides a visual readout of cell integrity (Figure 8A lower panel). This cellular effect was also analyzed after treatment of WT or CK2β-depleted MCF-10A cells with increasing concentrations of TAT-Pc 13. TAT-Pc 13 caused a cell death in both cell types, which was already detectable at a concentration of 25 µM and became massive at 50–60 µM (Figure 8B). […] In order to investigate the intracellular events induced by TAT-Pc 13, MCF-10A cells were incubated with increasing concentrations of TAT-Pc 13 and analyzed by Western blot.
Figure 8 Cellular effects of TAT-Pc 13. (A) MCF-10A cells were incubated with 25 µM of TAT-Pc 13 for 3 h and imaged with phase microscopy (upper panel) or with increasing concentrations of TAT-Pc 13 for 2 h and cell viability was evaluated using the LIVE&DEAD™ assay. Live cells fluoresce bright green (530 nm), whereas dead cells fluoresce red-orange (645 nm) (lower panel, scale bare: 100 µm); (B) WT (○-○) or CK2β-depleted (●-●) MCF-10A cells were incubated for 4 h with increasing concentrations of TAT-Pc 13 and cell death was evaluated using the LIVE&DEAD™ assay recording fluorescence at 645 nm. Representative data shown from two independent experiments in duplicate; (C) MCF-10A cells were pre-treated in the absence or presence of 20 µM z-VAD for 5 h and then incubated for 4 h with 25 µM random TAT-Pc 13 or TAT-Pc 13 and cell viability was evaluated as in (A) (scale bare: 100 µm); and (D) intracellular events induced by increasing concentrations of TAT-Pc 13. After 12 h of treatment, 786-O cells were lysed and analyzed by Western blot. TEXT PRINTED IN THE PICTURE: (B) TAT-Pc 13: TAT-Pc 13 (μM): 48; TAT-Pc 13 (μM): 60 DOUBTS OF THE COPYIST ABOUT THIS PICTURE: Panel B: 48 and 60 are printed in red at the x axis, where dashed lines drop from the two curves at about 50 on the Cell death (%) axis. No measure name (e.g. IC50) is printed with them. […]

T1 sequence (P68400 whole entry): as above

CC[C@H](C)[C@@H]1NC(=O)[C@H](CCCCN)NC(=O)[C@H](Cc2ccccc2)NC(=O)CNC(=O)[C@H](Cc2ccc(O)cc2)NC(=O)[C@H](CC(C)C)NC(=O)[C@H](CCCNC(=N)N)NC(=O)CNC(=O)CNC(=O)[C@@H](NC(=O)[C@H](CCC(N)=O)NC(=O)[C@@H]2CCCN2C(=O)[C@@H]2CCCN2C(=O)[C@H](CCCNC(=N)N)NC(=O)[C@H](CCCNC(=N)N)NC(=O)[C@H](CCCNC(=N)N)NC(=O)[C@H](CCC(N)=O)NC(=O)[C@H](CCCNC(=N)N)NC(=O)[C@H](CCCNC(=N)N)NC(=O)[C@H](CCCCN)NC(=O)[C@H](CCCCN)NC(=O)[C@H](CCCNC(=N)N)NC(=O)CN)CCCCNC(=O)CNC(=O)CNC(=O)[C@H](Cc2c[nH]cn2)NC1=O [TAT-Pc 13] (H-GRKKRRQRRRPPQKGGRLYGFKIHGG; lactam 14-C; N-terminus assumed)
inhibition at 50 µM (CK2α–CK2β interaction): 80% | CK2α recovered in CK2β immunoprecipitates [1]: significantly less CK2α | EC50 ([2]; 12 h treatment, text says MCF-10A cells, Figure 8D legend says 786-O cells, read-out: EC50, phosphorylation of p21 on Thr145 and decrease of survivin expression): 15 µM | AKT activation ([2]; increasing concentrations, 12 h): no sign of AKT activation
